According to US20150307938A1, “METHOD TO IDENTIFY A NOVEL CLASS OF IMMUNOLOGIC ADJUVANTS” (Lancell, L.L.C., priority 2011, published 2015):

Tested on: skin dendritic cells
Assay: Flow cytometric analysis of Ahr−/− response to topical DBP

For `CCCCOC(=O)c1ccccc1C(=O)OCCCC` [DBP, dibutylphthalate], the E/C (Ahr−/− mice) was 6.375, the E/C (B6 mice) was 5.97 and the “skin dendritic cell response in AhR−/− mice” value (topical application) was “no evidence for any impairment”.
